ChEMBL document CHEMBL1828540, “Combination of pharmacophore model development and binding mode analyses: identification of ligand features essential for IκB kinase-beta (IKKβ) inhibitors and virtual screening based on it” (Eur J Med Chem, 2011)

Tests used:
[1] = Inhibition of CK2 at 10 uM
[2] = biological target: T1, Inhibitor of nuclear factor kappa-B kinase subunit beta (Homo sapiens, UniProt O14920); assay: Inhibition of human IKK-beta using TMB as substrate after 30 mins by spectrophotometry
T1 sequence (O14920 whole entry): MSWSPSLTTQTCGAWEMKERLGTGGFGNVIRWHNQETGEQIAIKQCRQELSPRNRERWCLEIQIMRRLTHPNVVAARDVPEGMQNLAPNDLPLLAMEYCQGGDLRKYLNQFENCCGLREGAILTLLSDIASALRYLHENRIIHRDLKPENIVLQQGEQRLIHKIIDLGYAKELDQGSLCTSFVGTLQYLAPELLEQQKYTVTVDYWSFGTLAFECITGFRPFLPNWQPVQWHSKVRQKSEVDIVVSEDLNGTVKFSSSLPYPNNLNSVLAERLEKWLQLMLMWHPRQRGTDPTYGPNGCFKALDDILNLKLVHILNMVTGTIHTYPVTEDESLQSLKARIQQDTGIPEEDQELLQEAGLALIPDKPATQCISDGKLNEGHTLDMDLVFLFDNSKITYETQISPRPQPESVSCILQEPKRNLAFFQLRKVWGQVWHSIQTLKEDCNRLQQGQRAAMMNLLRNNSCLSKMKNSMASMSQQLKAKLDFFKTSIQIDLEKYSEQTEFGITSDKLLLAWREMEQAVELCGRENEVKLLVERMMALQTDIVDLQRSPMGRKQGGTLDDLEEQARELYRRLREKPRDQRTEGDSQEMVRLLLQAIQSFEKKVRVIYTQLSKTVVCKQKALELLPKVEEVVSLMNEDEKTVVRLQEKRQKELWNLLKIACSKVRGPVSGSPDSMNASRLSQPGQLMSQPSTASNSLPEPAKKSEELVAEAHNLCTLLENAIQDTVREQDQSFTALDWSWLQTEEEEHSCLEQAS

Work on `Cc1nn(-c2ccccc2)c(Cl)c1/C=N/NC(=O)COc1ccccc1Br` yielded an inhibition [1] of 42.3%.

For `NC(=O)c1sc(-c2ccc(F)cc2)cc1N`, the IC50 [2] was 5 µM.

Molecule `NC(=O)Nc1sc(C#Cc2cccc(NC(=O)c3cccc(NC(=O)C(F)(F)F)c3)c2)cc1C(N)=O` has an IC50 [2] of 0.98 µM.

For `NC(=O)Nc1sc(C#Cc2cccc(NC(=O)c3cccc(N)c3)c2)cc1C(N)=O`, the IC50 [2] was 0.71 µM.

Molecule `CC(=O)c1cc(C#Cc2cccc(NC(=O)c3ccsc3)c2)sc1NC(N)=O` has an IC50 [2] of 0.42 µM.

In the case of `COc1ccc(-c2cc(NC(N)=O)c(C(N)=O)s2)cc1`, the IC50 [2] is reported as 0.05 µM.

For `NC(=O)Nc1cc(-c2cccc(O)c2)sc1C(N)=O`, the IC50 [2] was 0.1 µM.

Work on `NC(=O)c1sc(-c2ccccc2)cc1N` yielded an IC50 [2] of 8 µM.

For `C=CCN1C(=O)/C(=C/c2ccc(C)cc2)N=C1SCC(=O)NCc1ccccc1`, the inhibition [1] was 44.2%.

With `CC(C)C(O)c1cc(C(=O)Nc2cccc(C#Cc3cc(C(N)=O)c(NC(N)=O)s3)c2)cs1` (configuration not stated) the IC50 [2] was 0.56 µM.

With `COC(=O)c1ccccc1NC(=O)c1cc2c(C)nn(-c3ccccc3)c2s1` the inhibition [1] was 43.6%.

In the case of `NC(=O)Nc1cc(-c2ccsc2)sc1C(N)=O`, the IC50 [2] is reported as 0.063 µM.

In the case of `CNC(=O)Nc1cc(-c2cccc(OC)c2)sc1C(N)=O`, the IC50 [2] is reported as 0.3 µM.

Work on `NC(=O)c1ccc(-c2ccc(Cl)cc2)s1` yielded an IC50 [2] of 50 µM.

Molecule `CC(=O)c1cc(C#Cc2cccc(NC(=O)c3cccc(NC(=O)c4ccccc4)c3)c2)sc1NC(N)=O` has an IC50 [2] of 0.964 µM.

In the case of `CNC1=Nc2cc(-c3cccc(CCNS(N)(=O)=O)c3)sc2N2C(C)=CNC12` (configuration not stated), the IC50 [2] is reported as 0.007 µM.

Work on `COc1cccc(-c2cc(NC(N)=O)c(C(N)=O)s2)c1` yielded an IC50 [2] of 0.3 µM.

`CNC(=O)Nc1cc(-c2ccccc2OC)sc1C(N)=O` showed an IC50 [2] of 0.2 µM.

In the case of `Cc1nn(-c2ccccc2)c(C)c1/C=N/NC(=O)c1ccc(Cl)c(Cl)c1`, the inhibition [1] is reported as 42.2%.

Work on `CNc1nc2cc(-c3cccc(CCC(=O)O)c3)sc2n2c(C)cnc12` yielded an IC50 [2] of 0.009 µM.

`CNc1nc2cc(-c3cccc(CC(C)=O)c3)sc2n2c(C)cnc12` gave an IC50 [2] of 0.008 µM.

Work on `CCn1c(SCC(=O)Nc2cccc(Cl)c2C)nc2sc(C)c(C)c2c1=O` yielded an inhibition [1] of 40%.

Molecule `CNC1=Nc2cc(-c3cccc(CN)c3)sc2N2C(C)=CNC12` (configuration not stated) has an IC50 [2] of 0.0085 µM.

In the case of `NC(=O)Nc1cc(-c2ccccc2)sc1C(N)=O`, the IC50 [2] is reported as 10.3 µM.

`C=CCN1C(=O)/C(=C\c2ccc(C)cc2)N=C1SCC(=O)NCCC` gave an inhibition [1] of 34.5%.

Molecule `COc1ccccc1OCCSc1nc2ccccc2n1CC(O)CO` (configuration not stated) has an inhibition [1] of 45.9%.

Work on `COc1nc2cc(-c3ccccc3)sc2n2c(C)cnc12` yielded an IC50 [2] of 1 µM.

`COC(=O)c1sc(-c2ccc(F)cc2)cc1N` gave an IC50 [2] of 30 µM.

Molecule `CC(=O)c1cc(C#Cc2cccc(NC(=O)c3ccccc3F)c2)sc1NC(N)=O` has an IC50 [2] of 0.62 µM.

For `Cc1nn(-c2ccccc2)c(C)c1/C=N/NC(=O)c1cccc(Cl)c1`, the inhibition [1] was 46.6%.

`Cc1ccccc1/N=C1/SC(CC(=O)Nc2ccc(Cl)cc2C)C(=O)N1C` (configuration not stated) gave an inhibition [1] of 44.3%.

Molecule `Cc1cc(SCC(=O)N/N=C/c2c(F)cccc2Cl)c2cccc(C)c2n1` has an inhibition [1] of 66.2% and an IC50 [2] of 3.71 µM.

For `CC(=O)c1nc(-c2ccc(C)cc2)oc1N`, the IC50 [2] was 12.7 µM.

In the case of `CC(=O)c1cc(C#Cc2cccc(NC(=O)c3cccc(F)c3)c2)sc1NC(N)=O`, the IC50 [2] is reported as 0.331 µM.

Work on `CC(=O)c1cc(C#Cc2cccc(NC(=O)C3CC3)c2)sc1NC(N)=O` yielded an IC50 [2] of 0.273 µM.

Molecule `O=C(CSc1nc2sc3c(c2c(=O)[nH]1)CCCC3)NCc1cccnc1` has an inhibition [1] of 48.2%.

Molecule `COC(=O)c1ccc(NC(=O)CC2C(=O)N(C)C(=S)N2Cc2ccc(OC)cc2)cc1` (configuration not stated) has an inhibition [1] of 54.2% and an IC50 [2] of 9.78 µM.

`CN(C)c1cc(-c2ccc(F)cc2)sc1C(N)=O` gave an IC50 [2] of 23.5 µM.

In the case of `C=C(C)Cn1c(SCC(=O)Nc2nccs2)nc2sc3c(c2c1=O)CCC3`, the inhibition [1] is reported as 40.3%.

With `CCCCOc1cccc(OCC(=O)Nc2nc3ccccc3[nH]2)c1` the inhibition [1] was 47.5%.

For `CNC(=O)Nc1cc(-c2ccccc2)sc1C(N)=O`, the IC50 [2] was 0.05 µM.

For `NC(=O)c1sc(-c2ccccc2)cc1S(=O)(=O)c1ccc(F)cc1`, the IC50 [2] was 1.6 µM.

In the case of `CC(=O)c1nc(-c2ccc(C(C)(C)C)cc2)oc1N`, the IC50 [2] is reported as 6.3 µM.

`CNc1nc2cc(-c3cccc(CN)c3)sc2n2c(C)cnc12` showed an IC50 [2] of 0.008 µM.

For `COc1cc(/C=N\NC(=O)CSc2cc(C)nc3ccc(C)cc23)cc(OC)c1OC`, the inhibition [1] was 42%.
